We go through 80 compounds from paper PMC12040169 (PLOS Biology, 2025).

This data set is described as follows: in vitro. The following applies: human, hela cells, % viability.

Regarding `OCc1nc(-c2cccnc2)co1` [CBK018811], the viability at 28.5 h, 10 µM was found to be 106%.
Regarding `O=C(O)C1CCN(c2cncc(-c3ccc4ccccc4c3)n2)CC1` [CBK065801], the viability at 28.5 h, 10 µM is 95.5%.
The same measure, in the same setting: then `NS(=O)(=O)c1ccc(NC(=O)CSc2ccc([N+](=O)[O-])cn2)cc1` [CBK269002], with 95%.
Still for that read-out and setting: then `COc1cc(/C=C2\SC(=N)NC2=O)ccc1OCC(=O)O` [CBK262675], with 88.4%; and `CN1CCC[C@H]1C(=O)N1CCCC2(CCN(Cc3ccccc3)C2)C1` (some centres unmarked) [CBK136901], with 90.7%; and `Cc1ccc(Nc2nc(N)nc(CN3CCN(Cc4ccc5c(c4)OCO5)CC3)n2)cc1` [CBK268985], with 96.1%.
On the same count and under the same terms, then `Cc1cc(/C=C(/C#N)c2ccc([N+](=O)[O-])cc2)c(C)n1-c1ccc(S(N)(=O)=O)cc1` [CBK266737], with 108%.
Regarding `CCCCc1ccc(NC(=O)CSc2nnc(N)s2)c(C)c1` [CBK057659], the viability at 28.5 h, 10 µM amounted to 91.9%.
Still for that read-out and setting: under `NC(=O)c1c(NC(=O)CSC2=NCCS2)sc2c1CCCC2` [CBK269989] stands 87.9%; under `CCCNC(=O)Cn1nc(C)n2c(cc3sccc32)c1=O` [CBK284020], 102%; under `CN(CCc1ccncc1)C(=O)c1cc2ccc(F)cc2[nH]1` [CBK283215], 81.3%.
Still for that read-out and setting: then `Cc1noc(C)c1C(=O)N1CCN(CCc2ccccc2)CC1` [CBK200225], with 95.8%; and `CCC(NC1CCc2nc(C)cn2C1)c1ccccc1O` (centres unmarked) [CBK306012], with 85.8%; and `CC(C)(C)S(=O)(=O)CC(N)=S` [CBK021304], with 91.1%.
Still for that read-out and setting: under `Cc1ccc(C)c(C2CCCN2C(=O)Cn2cc(C(=O)NCc3ccccc3)ccc2=O)c1` (centres unmarked) [CBK286052] stands 112%; under `CN1C(=O)c2ccccc2C(=O)[C@@]2(C)CN(CC(C)(C)C)C[C@@H]12` [CBK283481], 93.8%; under `CCc1noc(C)c1C(=O)N1CCN(C2CCCC2O)CC1` (centres unmarked) [CBK304869], 78%.
For `CC(N(C)S(=O)(=O)c1ccc(-n2ncc(Cl)c(Cl)c2=O)cc1)C(C)(C)C` (centres unmarked) [CBK304544], the viability at 28.5 h, 10 µM worked out at 73.9%.
The same measure, in the same setting: under `O=C(COc1ccccc1)n1nc(-c2ccco2)nc1NCc1cccs1` [CBK269145] stands 85.7%; under `Nc1nc(N)c(Cc2ccc(Cl)cc2Cl)c(N)n1` [CBK009425], 94.7%; under `CC(C)c1cc(C(=O)NC(C)(C)CN2CCCCC2C)n(C)n1` (centres unmarked) [CBK282644], 96.4%.
As to `CCC(C)NC(=O)Cn1c(C2CCNCC2)cc2cccnc21` (centres unmarked) [CBK285003], the viability at 28.5 h, 10 µM stood at 103%.
Regarding `Cc1ccn2cc(-c3ccc4c(c3)CCN4S(C)(=O)=O)cc2c1` [CBK285252], the viability at 28.5 h, 10 µM is 83.8%.
Same read-out and setting: then `COc1cc(C2CC(=O)N(c3cc(C)on3)C(=O)C2)cc(OC)c1OC` [CBK006810], with 109%; and `O=C(CSc1nccn1-c1ccccc1)Nc1ccc(F)cc1` [CBK287399], with 76.1%; and `COc1cc(NC(=O)N2CCNC(=O)C2)cc(OC)c1OC` [CBK155875], with 104%.
Regarding `CNCC(=O)N1CCC2(CCCC[C@H]3CN(C(C)=O)CC[C@H]3NC(=O)CNC2=O)CC1` [CBK292181], the viability at 28.5 h, 10 µM was 79.3%.
On to `Cc1ccccc1-n1ncc2c(=O)n(Cc3ccccc3)cnc21` [CBK287690], for which the viability at 28.5 h, 10 µM was determined as 96.9%.
The same measure, in the same setting: under `N#C/C(=C\c1cn(CCC(N)=O)c2ccccc12)Sc1nc2ccccc2s1` [CBK267897] stands 103%; under `Cc1ccc(S(=O)(=O)N(CC(=O)Nc2cccnc2)c2ccc(C)c(C)c2)cc1` [CBK263974], 75.4%; under `Cc1cccnc1Nc1nc(-c2ccccn2)cs1` [CBK267272], 91.5%.
The same measure, in the same setting: then `CCOC(=O)N1CCN(C(=O)COc2cccc3ccccc23)CC1` [CBK262992], with 93%; and `O=C(Cn1nnc(-c2ccc(CN3CCOCC3)cc2)n1)Nc1ccc(Br)cc1` [CBK127364], with 94.1%.
Take `COc1ccc(N2C(=O)/C(=C/c3ccc(-c4cc(C(=O)O)ccc4Cl)o3)C(=O)NC2=S)cc1` [CBK263750]: under “bulk resorufin, single well”, the viability at 28.5 h, 10 µM turned out to be 97.8%.
On to `O=C(Nc1cccc(O)c1)c1ccc(NC(=O)C2CCCO2)cc1` (centres unmarked) [CBK269746], for which the viability at 28.5 h, 10 µM came out at 91.6%.
In the case of `Cc1nc(CN2CCN(C(=O)NCCc3cnn(C)c3)CC2)cs1` [CBK305614], the viability at 28.5 h, 10 µM is 81.3%.
As for `CC1(OCc2ccccc2)SC(NC2CCCCCC2)=NC1=O` (centres unmarked) [CBK105606], the viability at 28.5 h, 10 µM came out at 82.8%.
For `CN(C)CCNC(=O)CSc1ccccc1` [CBK268426], the viability at 28.5 h, 10 µM was determined as 98.6%.
On the same count and under the same terms, under `O=C(Nc1ccc2c(c1)OCCO2)c1cnc(-c2ccc(Cl)cc2)c(-c2cccnc2)c1` [CBK037528] stands 110%; under `Cc1cc(CNCc2c(C(C)C)nn(C)c2N(C)C)no1` [CBK304855], 97%; under `c1ccc2c(c1)CCN(c1nc3cc4c(cc3s1)OCCO4)C2` [CBK287498], 82.8%.
On the same count and under the same terms, then `CCC(C)c1ccc(NC(=O)c2cccnc2)cc1` (centres unmarked) [CBK057967], with 85.9%.
Still for that read-out and setting: under `O=C(CSc1nnc(COc2ccc(Br)cc2)o1)OC1CCCCC1` [CBK027482] stands 88.8%.
`CCCc1[nH]nc(O)c1Cc1ccccc1CS(=O)(=O)c1ccccc1` [CBK074347]: the viability at 28.5 h, 10 µM turned out to be 87.8%.
Still for that read-out and setting: under `Cn1c(=O)n(C)c2cc(CNC(=O)COCC3CCCCO3)ccc21` (centres unmarked) [CBK307061] stands 109%; under `COc1ccccc1NC(=O)C(=O)NCc1cccnc1` [CBK287724], 97.5%.
The same measure, in the same setting: under `CCCCN1CCC(CNc2cc(C(F)(F)F)c3scc(C(=O)NC4CCC4)c3n2)CC1` [CBK034026C] stands 103%; under `O=C(NC1CCCCC1)N[C@H]1CO[C@H]2[C@@H]1OC[C@@H]2n1cc(CC2CCCCC2)nn1` [CBK289510], 75.2%.
Still for that read-out and setting: under `Cc1c(Cl)c(C(=O)N[C@@H]2CCN(Cc3ccccn3)C[C@H]2O)nn1C` [CBK306676] stands 96%.
In the case of `CC(C)(C)NC(=O)N1CCC(=O)N1` [CBK007341], the viability at 28.5 h, 10 µM was found to be 95.9%.
The same measure, in the same setting: then `O=C(NC(c1cccc([N+](=O)[O-])c1)c1cc(Cl)c2cccnc2c1O)c1cccnc1` (centres unmarked) [CBK263987], with 92.5%; and `O=C(CN1CCCCC1)Nc1ccc(NC(=O)CN2CCCCC2)cc1` [CBK265421], with 86.3%.
On the same count and under the same terms, under `N#CCCc1ccc(Oc2ncc(C(F)(F)F)cc2Cl)cc1` [CBK161635] stands 106%; under `CCCC/C=C/c1cnc(N)c(Nc2ccc3[nH]ccc3c2)n1` [CBK063811], 95.7%.
Still for that read-out and setting: then `CC(C)Nc1nccnc1OCCc1c[nH]c2ccccc12` [CBK115647], with 79.7%; and `O=C(c1ccc(OC(F)(F)F)cc1)N1CCC2(CCN(C(=O)c3ccoc3)C2)C1` (centres unmarked) [CBK131735], with 92.8%; and `CS(=O)(=O)c1ccc(-c2cccc(COC3CCN(C(=O)Cc4ccc(F)cc4F)CC3)c2)cc1` [CBK149506], with 87.8%.
As to `O=C(O)c1cc(NC(=O)C2CCCO2)ccc1O` (centres unmarked) [CBK269815], the viability at 28.5 h, 10 µM came to 99%.
The same measure, in the same setting: then `O=C(Cc1ccc(Cl)c(Cl)c1)N1CCN(c2ncccn2)CC1` [CBK144497], with 98%; and `Cc1ccccc1C(NC(=O)C1CCN(C/C=C/c2ccccc2)CC1)c1ncccc1C` (centres unmarked) [CBK147980], with 102%.
The same measure, in the same setting: under `CCC(CNC(=O)c1cc(-c2ccco2)nc2c(C(N)=O)ncn12)c1ccccc1` (centres unmarked) [CBK297779] stands 94.2%; under `COc1ccc(-c2nnc(NC(=O)C3CCCCC3)o2)cc1` [CBK287592], 83.3%; under `CCn1cc(C2CN(S(=O)(=O)c3ccccc3OC(F)F)CCO2)cn1` (centres unmarked) [CBK304234], 106%.
The same measure, in the same setting: under `CCCCc1ccc(N)c(C)c1` [CBK164057C] stands 89.9%; under `CC(=O)Nc1cccc(C(C)NC(=O)N(C)C2CCc3ccccc32)c1` (centres unmarked) [CBK306251], 102%; under `CC(=O)Nc1nc2c3ccccc3n(C(C)=O)c2s1` [CBK011360], 110%.
Turning to `COCCCOc1cc(NC(C)C)ncn1` [CBK115885], the viability at 28.5 h, 10 µM worked out at 92.6%.
On the same count and under the same terms, then `COc1ccc(N2CCN(c3nc(NCCO)nc(OC)n3)CC2)cc1` [CBK265478], with 103%.
Same read-out and setting: under `COc1ccc(N2C(=O)c3ccc(C(=O)OCC(=O)c4ccc(-c5ccccc5)cc4)cc3C2=O)cc1` [CBK263532] stands 95.8%; under `Clc1ccc(C2N(Cc3ccccc3)CCC3CCCCN32)cc1Cl` (centres unmarked) [CBK028769], 86.6%.
Still for that read-out and setting: then `COC(=O)[C@@H]1CN(C(=O)Nc2ccccc2)CCN1C(C)=O` [CBK289606], with 88%; and `O=C(C1CCCCC1)N1CCC(c2nnc3n2CCCCC3)CC1` [CBK284613], with 92.7%; and `COc1ccc2c(c1)C1(Nc3ccccc3C(=O)N1c1ccccc1)C(=O)N2` (centres unmarked) [CBK103747], with 94.1%.
On to `NC(=O)CCN1CCCC2(CCN(C(=O)c3ccoc3)C2)C1` (centres unmarked) [CBK132816], for which the viability at 28.5 h, 10 µM was found to be 96.9%.
On the same count and under the same terms, then `O=C(O)C1(Cc2ccc(-c3ccccc3)cc2)CCNC1` (centres unmarked) [CBK281687], with 91.2%.
On the same count and under the same terms, then `O=S(=O)(Nc1nc2cc(Cl)ccc2o1)c1ccc(Oc2ccccc2)cc1` [CBK050499], with 97.8%; and `CCC(C)[C@H](NC(=O)N1CCN(C(=O)c2cc3ccccc3[nH]2)CC1)C(=O)O` (some centres unmarked) [CBK286725], with 91%; and `COc1ccc(-c2cc(C(=O)N3CCN(C(C)=O)CC3)cnc2-c2ccc(Cl)cc2)cc1` [CBK037577], with 102%.
The same measure, in the same setting: under `CC(=O)Nc1ccc(CNC(=O)CN(C)CC2CCCCO2)cc1` (centres unmarked) [CBK306567] stands 89.6%; under `COCCn1cnnc1CCNC(=O)Cc1cccc(O)c1` [CBK307322], 112%.
